{
  "source": "patent US20180258381A1",
  "about": "“BIO-LAMINA BIOREACTORS AND METHODS OF MAKING AND USING THE SAME” (Oregon State University, priority 2015, published 2018)",
  "target": "T1, sMMO (Methylosinus trichosporium, UniProt P27353)",
  "T1 construct": "endogenous in cells; host or cells: M. trichosporium OB3b whole cells, grown without copper (chemostat or batch)",
  "T1 sequence (P27353 1-526)": "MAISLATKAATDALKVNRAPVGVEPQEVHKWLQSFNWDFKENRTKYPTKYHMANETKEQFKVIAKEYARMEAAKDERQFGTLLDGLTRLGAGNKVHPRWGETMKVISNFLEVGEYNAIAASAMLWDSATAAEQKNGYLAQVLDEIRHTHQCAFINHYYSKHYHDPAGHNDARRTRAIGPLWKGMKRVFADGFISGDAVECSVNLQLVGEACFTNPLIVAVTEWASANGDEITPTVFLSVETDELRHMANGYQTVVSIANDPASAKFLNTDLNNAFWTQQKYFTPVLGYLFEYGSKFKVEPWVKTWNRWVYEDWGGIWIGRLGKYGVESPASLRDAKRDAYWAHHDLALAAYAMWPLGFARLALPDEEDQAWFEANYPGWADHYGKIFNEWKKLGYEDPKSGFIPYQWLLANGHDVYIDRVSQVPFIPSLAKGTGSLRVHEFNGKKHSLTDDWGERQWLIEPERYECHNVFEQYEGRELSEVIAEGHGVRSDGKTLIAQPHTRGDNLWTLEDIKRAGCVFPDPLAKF",
  "T1 sequence (P27354 1-394 partner)": "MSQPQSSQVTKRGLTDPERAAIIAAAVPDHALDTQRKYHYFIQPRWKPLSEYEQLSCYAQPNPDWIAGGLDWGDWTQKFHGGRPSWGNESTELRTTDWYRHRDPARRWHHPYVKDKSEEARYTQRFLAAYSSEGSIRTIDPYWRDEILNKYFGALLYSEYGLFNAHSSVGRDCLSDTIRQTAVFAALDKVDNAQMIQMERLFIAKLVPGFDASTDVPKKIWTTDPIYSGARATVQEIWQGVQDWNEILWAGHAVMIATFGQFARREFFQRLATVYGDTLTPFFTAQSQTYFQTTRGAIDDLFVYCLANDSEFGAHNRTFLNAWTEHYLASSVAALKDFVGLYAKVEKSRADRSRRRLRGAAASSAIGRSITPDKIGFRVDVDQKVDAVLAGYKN",
  "T1 sequence (P27355 1-169 partner)": "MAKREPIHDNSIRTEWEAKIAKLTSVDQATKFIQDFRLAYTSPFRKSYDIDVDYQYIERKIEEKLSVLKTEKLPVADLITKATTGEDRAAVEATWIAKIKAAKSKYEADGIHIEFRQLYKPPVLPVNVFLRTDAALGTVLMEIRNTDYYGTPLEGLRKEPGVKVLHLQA",
  "assay": "sMMO activity reactivity assay, inhibitor trials",
  "type": "cell-based, M. trichosporium OB3b",
  "procedure": "M. trichosporium OB3b cultures were grown under plus copper (pMMO expressed) or minus copper (sMMO expressed) conditions using chemostat or batch culture conditions. Aliquots of culture (˜100 ml) were harvested by centrifugation, and concentrated 50-fold in fresh media. Pelleting cells in this manner ensured that all residual methane was eliminated, increased ease of measuring protein, and made activity assays as brief as possible. Assays were performed in 30 ml crimp cap reaction vials with 4 ml of media (either +Cu or −Cu) with 10 mM sodium formate. To initiate assays, 100 µl of the 50× cell suspension was added to reaction vials with a plastic syringe. Short descriptions of activity assays follow.\nDue to the relative insolubility of methane, large volumes should be added to reaction vials to achieve concentrations in the aqueous phase (Cw) above the concentration of methane where the velocity of methane consumption (V) is equal to 0.5Vmax for minus copper grown M. trichosporium OB3b cultures. These large methane additions make direct measurement of methane consumption in short-term assays unlikely, therefore the accumulation of ethylene oxide (ETO) upon the oxidation of ethylene (ETH) was used as a surrogate measurement. Reaction vials were prepared as described above and 5 ml of ETH added as an overpressure. The appearance of ETO was monitored by gas chromatography evaluation of Cw over the course of 30 minutes (FIG. 39A). Killed cells (boiled) served as a negative control. pMMO is a copper enzyme and can be inhibited by allylthiourea (ATU), while sMMO (an iron enzyme) is insensitive to inhibition by ATU. The ETH to ETO assay described above was repeated with 10 μM ATU to discriminate between sMMO and pMMO activity.\nMetabolic activity test methods have been developed to monitor specific activities in M. trichosporium OB3b cultures. A naphthalene oxidation assay was used to determine if sMMO is being expressed. An ethylene to ethylene oxide reaction assay and a methane oxidation assay was used to quantify MMO activity, and a methanol oxidation assay was used to estimate MDH activity. Concurrent batch metabolic tests can be conducted to investigate methanol inhibition of methane oxidation, cyclopropane to cyclopropanol conversion and concurrent/subsequent cyclopropanol inhibition of MDH activity, the effect of cyclopropanol inhibition on growth yield, and the effects of high oxygen concentration. Once stable operation and baseline metabolic monitoring in the chemostat have been achieved, inhibitor can be added to evaluate chemostat operation under methanol-producing conditions.\nMMO activity has been measured via both methane (CH4) consumption and ethylene oxide (ETO) production upon oxidation of the non-growth substrate ethylene (ETH, Table 4). While ETO production matches methane consumption for pMMO, ETH is not as good a substrate for sMMO as methane. Nevertheless, the ETO accumulation assay is quick (<30 min) and can be used to screen for activity before starting a larger experiment.\nThe effect of salts NaCl, NH4Cl and CaCl2 on MMO and MDH activity was evaluated using the reactivity assays described above.",
  "data": [
    {"compound": "C1CC1", "note": "[CP, cyclopropane]", "values": [
      {"measurement": "Fraction of Activity Remaining, sMMO", "setting": "CP 03 μmol", "result": 0.9},
      {"measurement": "Fraction of Activity Remaining, sMMO", "setting": "CP 32 μmol", "result": 0.9},
      {"measurement": "Fraction of Activity Remaining, sMMO", "setting": "CP 64 μmol", "result": 0.8}
    ]}
  ]
}
